Test systems include 786-0 renal; CAKI-1 renal; CCRF-CEM leukemia; EKVX NSCLC; HL-60(TB) leukemia; HT29 colon; LOX IMVI melanoma; NCI-H226 lung; SK-OV-3 ovarian; UACC-62 melanoma.
Common to all, as to experiment: NCI tumour cell line growth inhibition, 48 h

SMILES strings stand for the structures. Values joined by “and” are separate entries in the source; they are usually repeats but may differ in a detail not shown here. Equal values may be shown once.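 48-hour exposure; five concentrations; linearly interpolated endpoints. GI50 marks 50% less growth. TGI is the concentration that stops growth completely.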 Some results are limits rather than exact numbers.

With `Nc1c(C(=O)Nc2ccccc2F)sc2nc3c(cc12)C(=O)CCC3`, the GI50 with 786-0 renal is 13.6 µM; with CAKI-1 renal, 1.76 µM; with CCRF-CEM leukemia, 3.46 µM; in the experiment on HL-60(TB) leukemia, 2.4 µM; in the experiment on HT29 colon, 0.531 µM; with LOX IMVI melanoma, 8.58 µM. Also, the GI50 in the experiment on NCI-H226 lung is 10.5 µM; in the experiment with SK-OV-3 ovarian, 0.746 µM; in the experiment with UACC-62 melanoma, 0.654 µM. Further, the TGI with 786-0 renal, in the experiment with CAKI-1 renal, with CCRF-CEM leukemia, in the experiment on EKVX NSCLC, with HL-60(TB) leukemia and with HT29 colon was more than 100 µM throughout. In addition, the TGI in the experiment with LOX IMVI melanoma, with NCI-H226 lung, with SK-OV-3 ovarian and in the experiment on UACC-62 melanoma was more than 100 µM in each case.
As for `O=C(O)c1ccc2c(c1)nc(Nc1cccc(Cl)c1)c1ccncc12`, the GI50 in the experiment on 786-0 renal was 3.7 µM and 4.2 µM; in the experiment on CAKI-1 renal it was 1.31 µM and 1.96 µM; with CCRF-CEM leukemia, 2.25 µM and 1.85 µM; with EKVX NSCLC, 3.46 µM and 4.04 µM; in the experiment on HL-60(TB) leukemia it was 2.88 µM and 4.98 µM; in the experiment on HT29 colon, 5.48 µM and 6.26 µM. Also, the GI50 is 2.04 µM and 2.7 µM in the experiment with LOX IMVI melanoma; 1.77 µM and 2.77 µM in the experiment on NCI-H226 lung; 2.98 µM and 2.42 µM with SK-OV-3 ovarian; 1.82 µM in the experiment with UACC-62 melanoma. Moreover, the TGI in the experiment on 786-0 renal was 18.6 µM and > 10 µM; in the experiment with CAKI-1 renal, 5.73 µM and 7.22 µM; in the experiment on CCRF-CEM leukemia, 8.55 µM and 7.01 µM; in the experiment with EKVX NSCLC it was 23.9 µM and > 10 µM; with HL-60(TB) leukemia it was 7.67 µM and > 10 µM; in the experiment on HT29 colon it was 33.3 µM and > 10 µM. The TGI in the experiment on LOX IMVI melanoma was 10.7 µM and > 10 µM; with NCI-H226 lung, more than 20.3 µM; with SK-OV-3 ovarian it was 11.6 µM and 7.52 µM; in the experiment on UACC-62 melanoma, 6.16 µM.
Consider `O=C1/C(=C/c2ccccc2)CN(C(=O)OCc2ccccc2)C/C1=C\c1ccccc1`, for which the TGI in the experiment with 786-0 renal is 18.5 µM; with CAKI-1 renal it was more than 31.6 µM; in the experiment on CCRF-CEM leukemia, 8.4 µM and 8.56 µM; in the experiment on EKVX NSCLC, more than 31.6 µM; with HL-60(TB) leukemia it was 5.43 µM; in the experiment with HT29 colon it was 6.31 µM and 25.5 µM. Moreover, the TGI is 2.52 µM and 8.88 µM in the experiment with LOX IMVI melanoma; 35.2 µM with NCI-H226 lung; 40.5 µM in the experiment on SK-OV-3 ovarian; 20.2 µM in the experiment on UACC-62 melanoma. Moreover, the GI50 with HT29 colon is 1.87 µM; in the experiment on LOX IMVI melanoma, 1.21 µM.
As for `O=[N+]([O-])c1ccc2ncccc2c1Cl`, the GI50 was 3.28 µM with 786-0 renal; 1.69 µM in the experiment on CAKI-1 renal; 2.54 µM with CCRF-CEM leukemia; 12.3 µM in the experiment on EKVX NSCLC; 1.92 µM with HL-60(TB) leukemia; 3.45 µM in the experiment with HT29 colon. The GI50 in the experiment with LOX IMVI melanoma was 2.4 µM; in the experiment on NCI-H226 lung, 6.22 µM; in the experiment on SK-OV-3 ovarian, 3.13 µM; with UACC-62 melanoma it was 5.84 µM. The TGI in the experiment with 786-0 renal is 20.4 µM; with CAKI-1 renal, 3.45 µM; in the experiment with CCRF-CEM leukemia, 29.8 µM; with EKVX NSCLC, 29.2 µM; in the experiment on HL-60(TB) leukemia, 7.78 µM; with HT29 colon, 9.29 µM. Also, the TGI in the experiment with LOX IMVI melanoma is 14.5 µM; in the experiment with NCI-H226 lung, more than 100 µM; with SK-OV-3 ovarian it was more than 100 µM; in the experiment with UACC-62 melanoma, 20.4 µM.
On to `COc1ccc(-c2c(-c3cc(OC)c4c(c3)OCO4)noc2N)cc1`, for which the GI50 with 786-0 renal was 0.0845 µM; in the experiment on CAKI-1 renal, 0.0424 µM; in the experiment on CCRF-CEM leukemia, 0.0361 µM; in the experiment with EKVX NSCLC, 1.74 µM; with HL-60(TB) leukemia, 0.0351 µM; with HT29 colon, 0.0353 µM. In addition, the GI50 was 0.0629 µM in the experiment on LOX IMVI melanoma, 0.0883 µM in the experiment with NCI-H226 lung, 0.032 µM in the experiment on SK-OV-3 ovarian and 0.05 µM in the experiment on UACC-62 melanoma. Also, the TGI is 24.1 µM with 786-0 renal; 57.2 µM in the experiment with CAKI-1 renal; 24.9 µM in the experiment with CCRF-CEM leukemia; more than 71.3 µM with EKVX NSCLC; 13.7 µM in the experiment on HL-60(TB) leukemia; 1.63 µM in the experiment with HT29 colon. The TGI in the experiment on LOX IMVI melanoma is more than 51.5 µM; in the experiment on NCI-H226 lung, 4.07 µM; in the experiment on SK-OV-3 ovarian it was 1.29 µM; in the experiment on UACC-62 melanoma it was 20.7 µM.
In the case of `Cn1c(=S)c2[nH]c(SCCN3CCCC3)nc2n(C)c1=O`, the TGI with 786-0 renal, in the experiment on CAKI-1 renal, in the experiment on CCRF-CEM leukemia, in the experiment with EKVX NSCLC, in the experiment with HL-60(TB) leukemia and in the experiment with HT29 colon was more than 100 µM in each case. Moreover, the TGI in the experiment on LOX IMVI melanoma, in the experiment with NCI-H226 lung, in the experiment on SK-OV-3 ovarian and with UACC-62 melanoma was more than 100 µM in each case.
With `CCCSC1=NC2C(N(CC)C(=O)N2CC)N1/N=C/C=C/c1ccccc1[N+](=O)[O-]` (stereo unspecified), the GI50 with 786-0 renal is 4.61 µM; in the experiment with CAKI-1 renal it was 2.93 µM; in the experiment on CCRF-CEM leukemia, 2.93 µM; in the experiment on EKVX NSCLC it was 3.89 µM; in the experiment with HL-60(TB) leukemia it was 3.27 µM; with HT29 colon it was 3.16 µM. In addition, the GI50 in the experiment on LOX IMVI melanoma was 3.08 µM; in the experiment on NCI-H226 lung, 3.32 µM; in the experiment with SK-OV-3 ovarian it was 6.07 µM; with UACC-62 melanoma, 2.81 µM. For the same compound, the TGI was more than 100 µM with 786-0 renal; more than 100 µM in the experiment with CAKI-1 renal; more than 100 µM in the experiment on CCRF-CEM leukemia; more than 100 µM with EKVX NSCLC; 12.1 µM in the experiment with HL-60(TB) leukemia; more than 100 µM in the experiment on HT29 colon. Besides, the TGI in the experiment with LOX IMVI melanoma was 20.7 µM; in the experiment with NCI-H226 lung it was more than 100 µM; with SK-OV-3 ovarian it was more than 100 µM; in the experiment with UACC-62 melanoma, more than 100 µM.
For `CCCCC#CC#Cc1cccc(=O)o1`, the GI50 in the experiment on 786-0 renal was 16.6 µM; with CAKI-1 renal, 22.5 µM; in the experiment with CCRF-CEM leukemia, 15.4 µM; in the experiment on EKVX NSCLC, 49 µM; with HL-60(TB) leukemia, 15.6 µM; in the experiment with HT29 colon, 13.5 µM. In addition, the GI50 is 16.2 µM with LOX IMVI melanoma, 16.3 µM with NCI-H226 lung, 27.3 µM with SK-OV-3 ovarian and 16.1 µM in the experiment with UACC-62 melanoma. Besides, the TGI in the experiment with 786-0 renal was 34.6 µM; with CAKI-1 renal, 60 µM; with CCRF-CEM leukemia, more than 100 µM; in the experiment on EKVX NSCLC it was more than 100 µM; with HL-60(TB) leukemia, 43.1 µM; with HT29 colon, 36.1 µM. Further, the TGI turned out to be 32.3 µM in the experiment on LOX IMVI melanoma, 38.3 µM with NCI-H226 lung, 46.7 µM in the experiment on SK-OV-3 ovarian and 32.8 µM with UACC-62 melanoma.

Values taken from PubChem BioAssay (NCI).
